Data taken from article PMC10808720 (Frontiers in Pharmacology, 2024).

Assays:
[1] = animals; ref Ray et al., 1991; Vats, 2018; Vats and Mehre, 2020; cited from earlier work
[2] = system: HAdV5-GFP; test: HAdV time of addition assay; format: cell-based, human adenovirus (HAdV5); conditions: 10-fold IC50
Description: The anti-HAdV effect of these natural compounds at different time-points was measured through a time-curve assay using 293β5 cells (3 × 10^4 cells/well in Corning black wall, clear bottom 96-well plates) infected with HAdV5-GFP (MOI 2,000 vp/cell) in the presence of 100 μL of complete DMEM containing 10-fold IC50 concentration of each comound obtained in the plaque assay for each compound or the same volume of DMSO (positive control). A standard infection curve was generated in parallel by infecting cells in the absence of compounds using 2-fold serial dilutions of the virus from an MOI of 2,000 vp/cell in order to extrapolate the GFP resulting from each molecule with its corresponding MOI.
Parallel samples of HAdV5 were incubated with or without the selected compounds on ice for 1 h. HAdV5 was then added to 293β5 cells and incubated at 37°C. Compounds were then added at the indicated time points until the last time point at 2 h. Then, the cells were incubated for an additional 48 h at 37°C and 5% CO2 before being analyzed for GFP expression using a Typhoon 9410 imager (GE Healthcare Life Sciences) and ImageQuantTL (GE Healthcare Life Sciences), as we described earlier.

[3] = system: wild-type HAdV5; test: HAdV/tubulin colocalization (confocal microscopy); format: cell-based, human adenovirus (HAdV5); conditions: 0.05 μM; 90 min after synchronized infection; A549
Description: The coverslips were previously washed with acetone, distilled water and absolute ethanol sequentially, and washed with 1x PBS, and treated with poly-L-lysine (Merck, Darmstadt, Germany) for 1 h, and washed again twice with 1x PBS. […] The infection was synchronized for 1 h on ice, excess virus was removed, and the cells were incubated for 90 min at 37°C and 5% CO2. Finally, the cells were fixed with methanol/acetone 50% for 10 min at −20°C whereupon nonspecific unions were blocked with PBS/BSA 10% for 1 h at room temperature. The cells were then incubated with hexon protein mouse monoclonal IgG (DSHB, Iowa City, USA) and anti-gamma-tubulin antibody marked by Alexa Fluor® 647 (Abcam, Cambridge, UK) for 60 min at room temperature. After rinsing with 1x PBS, the cells were incubated with Alexa Fluor 488 goat anti-mouse IgG (Thermo Fisher Scientific, MA, USA) for 20 min at room temperature, and DAPI (Merck) was added for 5 min to stain the nucleus. Finally, coverslips were fixed on the slides with a mounting medium prepared from one part of 10x PBS and 9 parts of glycerol and stored in the dark overnight at 4°C. […] The Z-series was analyzed by first determining the region of interest and then measuring the fluorescence signal using ImageJ.

[4] = system: wild-type HAdV5; test: Nuclear-associated HAdV genomes (qPCR after nuclear isolation); format: cell-based, human adenovirus (HAdV5); conditions: 10-fold IC50; 45 min after synchronized infection; A549
Description: Nuclear delivery of HAdV genomes was assessed using qPCR following nuclear isolation from infected cells. Briefly, 1 × 10^6 A549 cells in 6-well plates were infected either with wild-type HAdV5 at an MOI of 2,000 vp/cell in the presence of a 10-fold IC50 concentration of the compounds obtained in the plaque assay or the same volume of DMSO as the positive control. Forty-five minutes after infection, the A549 cells were trypsinized, collected, and washed twice with PBS. The cell pellet was resuspended in 500 μL of 1×hypotonic buffer (20 mM Tris-HCl pH 7.4, 10 mM NaCl, 3 mM MgCl2) and incubated for 15 min at 4°C. Then, 25 μL of NP-40 was added and the samples were vortexed. The homogenates were centrifuged for 10 min at 835 g at 4°C. Following the removal of the cytoplasmic fraction (supernatant), HAdV DNA was isolated from the nuclear (pellet) and cytoplasmic fractions using the E.Z.N.A.® Tissue DNA Kit (Omega Bio-tek, Norcross, GA).

[5] = system: HAdV-RFP; test: Direct interaction of rotenone with HAdV particles (pre-incubated virions, RFP expression); format: cell-based, human adenovirus (HAdV5); conditions: virions pre-incubated with 0.1 µM; 48 h; A549
Description: These treated virions were then added to A549 cells and incubated for 1 h on ice, to allow the HAdV particles to attach to the cells.

[6] = system: HAdV5-GFP; test: microbe, parasite or virus in culture; format: cell-based, human adenovirus (HAdV5); conditions: Human adenovirus sp.
Description: Compounds were tested using low MOI infections (0.06 vp/cell), initially at concentrations of 10 μM and subsequently in a dose-response assay ranging from 10 μM to 2.44 nM in a plaque assay. Briefly, 293β5 cells were seeded in 6-well plates at a density of 1 × 10^6 cells per well in duplicate for each condition. When the cells reached 80%–90% confluency, they were infected with HAdV5-GFP and rocked for 2 h at 37°C. After the incubation, the inoculum was removed and the cells were washed once with PBS. Cells were then carefully overlaid with equal parts of 4 mL/well 1.6% ([…]) Difco Agar Noble (Becton, Dickinson & Co., Sparks, MD, USA) and 2× Eagle’s Minimum Essential Medium (EMEM; BioWhittaker) supplemented with 2×penicillin/streptomycin, 2× L-glutamine, and 10% FBS. The mixture also contained the compounds in the concentration ranges described above. Following incubation for 7 days at 37°C, plates were scanned with a Typhoon FLA 9000 imager (GE Healthcare Life Sciences) and the formed plaques were quantified with ImageJ ([Schneider et al., 2012]). Plaque counting was performed to calculate the 50% inhibitory concentration (IC50) of each compound using the statistical software GraphPad Prism 6.

SMILES: C=C(C)[C@H]1Cc2c(ccc3c2O[C@@H]2COc4cc(OC)c(OC)cc4[C@@H]2C3=O)O1 [Rotenone, (2R,6aS,12aS)-8,9-dimethoxy-2-(prop-1-en-2-yl)-1,2,12,12a-tetrahydrochromeno[3,4-b]furo[2,3-h]chromen-6-(6aH)-one]
- estimated lethal dose [1]: 300 to 500 mg/kg
- time dependence of inhibitory activity ([2]; addition up to 2 h): sharp loss of inhibitory activity
- loss of inhibitory activity ([2]; compound added at 10 min p.i.): more than 25%
- loss of inhibitory activity ([2]; compound added at 40 min p.i.): more than 60%
- colocalization of HAdV particles with the tubulin [3]: lower level of colocalization
- accessibility of HAdV genomes to the nucleus [4]: significantly blocked
- level of RFP inhibition, cells incubated with vs without rotenone after attachment [5]: no differences
- IC50 ([6]; 168 h, read-out: IC50 plaque assay): 3.9 ± 0.1 nM
- inhibition at 0.004 µM ([6]; read-out: inhibition of plaque formation): 67.8%
